Here are results for one molecule from PMC5651374 (Alzheimer's & Dementia : Translational Research & Clinical …, 2016).

The conditions of this series: brain imaging.

As for `C[N+]1=C(C=CC=CC=C2N(CCCCCC(=O)ON3C(=O)CCC3=O)c3ccc4ccccc4c3C2(C)C)C(C)(C)c2c1ccc1ccccc21.[Cl-]` [Cy5 dye, Cyanine5.5 NHS ester dye], the “ability to cross the BBB, dye injected alone” value is listed as “could not on its own cross the BBB”.
